# Patent US6548506B2, “Benzo[1,8]naphthyridine derivatives, their preparation and pharmaceutical compositions which comprise them” (Aventis Pharma S.A., priority 1998, dated 2003)
# Columns and labels:
# Type in all cases: in vivo
# [1] = tested on: Staphylococcus aureus ATCC 25923; test: Model of infection of the guinea-pig with Staphylococcus aureus ATCC 25923; settings: about 2% in a cetomacrogol and benzyl alcohol formulation; guinea-pig infected with S. aureus ATCC 25923
# [2] = tested on: Staphylococcus aureus AS 5155; test: Model of experimental infection of the guinea pig with Staphylococcus aureus AS 5155; settings: about 2%; guinea pig infected with S. aureus AS 5155, resistant to meticillin, MLSB and quinolones
# [3] = 2-week topical application toxicity in rat; settings: 2 weeks topical application b.i.d., composition at about 2, about 5 and about 10%
# [4] = 2-week topical application to nasal mucous membrane of rabbit, toxicity; settings: 2 weeks topical application b.i.d., composition at about 2%
smiles,measurement,setting,value
"Cn1cc(C(=O)O)c(=O)c2cc3cc(F)c(N4CCN(c5ccc(F)cc5)CC4)cc3nc21 [Example 1, 7-Fluoro-8-[4-(4-fluorophenyl)piperazin-1-yl]-1-methyl-4-oxo-1,4-dihydrobenzo[b][1,8]-naphthyridine-3-carboxylic Acid]",in vivo activity,[1],active
same,in vivo activity,[2],active
same,toxic effect,[3],no toxic effect was observed
same,toxic effect,[4],no toxic effect was observed
